According to article PMC3694096, “Development of Novel In Vivo Chemical Probes to Address CNS Protein Kinase Involvement in Synaptic Dysfunction” (PLoS ONE, 2013):
Like-named read-outs stand apart in the source and are kept apart here.

Key:
[1] = target: T1, AMPKα1 (Homo sapiens, UniProt Q13131); assay: Kinome profiler screen; type: biochemical; details: at 20,000 nM inhibitor; kinase activity remaining
T1 construct: purchased Millipore KinaseProfiler

[2] = target: T2, BRK (Homo sapiens, UniProt Q13882); assay: Kinome profiler screen; type: biochemical; details: at 20,000 nM inhibitor; kinase activity remaining
T2 construct: purchased Millipore KinaseProfiler

[3] = target: T3, BrSK2 (Homo sapiens, UniProt Q8IWQ3); assay: Kinome profiler screen; type: biochemical; details: at 20,000 nM inhibitor; kinase activity remaining
T3 construct: purchased Millipore KinaseProfiler

[4] = target: T4, CDK9/cyclin T1 (Homo sapiens, UniProt P50750); assay: Kinome profiler screen; type: biochemical; details: at 20,000 nM inhibitor; kinase activity remaining
T4 construct: purchased Millipore KinaseProfiler

[5] = target: T5, CK1γ3 (Homo sapiens, UniProt Q9Y6M4); assay: Kinome profiler screen; type: biochemical; details: at 20,000 nM inhibitor; kinase activity remaining
T5 construct: purchased Millipore KinaseProfiler

[6] = target: T6, CLK2 (Homo sapiens, UniProt P49760); assay: Kinome profiler screen; type: biochemical; details: at 20,000 nM inhibitor; kinase activity remaining
T6 construct: purchased Millipore KinaseProfiler

[7] = target: T7, CSK (Homo sapiens, UniProt P41240); assay: Kinome profiler screen; type: biochemical; details: at 20,000 nM inhibitor; kinase activity remaining
T7 construct: purchased Millipore KinaseProfiler

[8] = target: T8, eEF-2K (Homo sapiens, UniProt O00418); assay: Kinome profiler screen; type: biochemical; details: at 20,000 nM inhibitor; kinase activity remaining
T8 construct: purchased Millipore KinaseProfiler

[9] = target: T9, EphA1 (Homo sapiens, UniProt P21709); assay: Kinome profiler screen; type: biochemical; details: at 20,000 nM inhibitor; kinase activity remaining
T9 construct: purchased Millipore KinaseProfiler

[10] = target: T10, FAK (Homo sapiens, UniProt Q05397); assay: Kinome profiler screen; type: biochemical; details: at 20,000 nM inhibitor; kinase activity remaining
T10 construct: purchased Millipore KinaseProfiler

[11] = target: T11, Fes (Homo sapiens, UniProt P07332); assay: Kinome profiler screen; type: biochemical; details: at 20,000 nM inhibitor; kinase activity remaining
T11 construct: purchased Millipore KinaseProfiler

[12] = target: T12, FGFR2(N549H) (Homo sapiens, UniProt P21802, N549H); assay: Kinome profiler screen; type: biochemical; details: at 20,000 nM inhibitor; kinase activity remaining
T12 construct: purchased Millipore KinaseProfiler

[13] = target: T13, Flt4 (Homo sapiens, UniProt P35916); assay: Kinome profiler screen; type: biochemical; details: for activity at 20 µM: at 20,000 nM inhibitor, kinase activity remaining
T13 construct: purchased Millipore

[14] = target: T14, GRK5 (Homo sapiens, UniProt P34947); assay: Kinome profiler screen; type: biochemical
T14 construct: purchased Millipore KinaseProfiler

[15] = target: T15, GRK6 (Homo sapiens, UniProt P43250); assay: Kinome profiler screen; type: biochemical
T15 construct: purchased Millipore KinaseProfiler

[16] = target: T16, GRK7 (Homo sapiens, UniProt Q8WTQ7); assay: Kinome profiler screen; type: biochemical
T16 construct: purchased Millipore KinaseProfiler

[17] = target: T17, GSK3α (Homo sapiens, UniProt P49840); assay: Kinome profiler screen; type: biochemical; details: at 20,000 nM inhibitor; kinase activity remaining
T17 construct: purchased Millipore KinaseProfiler

[18] = target: T18, Hck activated (Homo sapiens, UniProt P08631); assay: Kinome profiler screen; type: biochemical; details: at 20,000 nM inhibitor; kinase activity remaining
T18 construct: purchased Millipore KinaseProfiler

[19] = target: T19, HIPK2 (Homo sapiens, UniProt Q9H2X6); assay: Kinome profiler screen; type: biochemical; details: at 20,000 nM inhibitor; kinase activity remaining
T19 construct: purchased Millipore KinaseProfiler

[20] = target: T20, IRR (Homo sapiens, UniProt P14616); assay: Kinome profiler screen; type: biochemical; details: at 20,000 nM inhibitor; kinase activity remaining
T20 construct: purchased Millipore KinaseProfiler

[21] = target: T21, Lck (Homo sapiens, UniProt P06239); assay: Kinome profiler screen; type: biochemical; details: at 20,000 nM inhibitor; kinase activity remaining
T21 construct: purchased Millipore KinaseProfiler

[22] = target: T22, Lyn(m) (Mus musculus, UniProt P25911); assay: Kinome profiler screen; type: biochemical; details: at 20,000 nM inhibitor; kinase activity remaining
T22 construct: purchased Millipore KinaseProfiler

[23] = target: T23, MAPKAP-K2 (Homo sapiens, UniProt P49137); assay: Kinome profiler screen; type: biochemical; details: at 20,000 nM inhibitor; kinase activity remaining
T23 construct: purchased Millipore KinaseProfiler

[24] = target: T24, MRCKβ (Homo sapiens, UniProt Q9Y5S2); assay: Kinome profiler screen; type: biochemical; details: at 20,000 nM inhibitor; kinase activity remaining
T24 construct: purchased Millipore KinaseProfiler

[25] = target: T25, MST1 (Homo sapiens, UniProt Q13043); assay: Kinome profiler screen; type: biochemical; details: at 20,000 nM inhibitor; kinase activity remaining
T25 construct: purchased Millipore KinaseProfiler

[26] = target: T26, MuSK (Homo sapiens, UniProt O15146); assay: Kinome profiler screen; type: biochemical; details: at 20,000 nM inhibitor; kinase activity remaining
T26 construct: purchased Millipore KinaseProfiler

[27] = target: T27, PI3 Kinase (p110δ/p85α) (Homo sapiens, UniProt O00329); assay: Kinome profiler screen; type: biochemical; details: at 20,000 nM inhibitor; kinase activity remaining
T27 construct: purchased Millipore KinaseProfiler

[28] = target: T28, PIP5K1γ (Homo sapiens, UniProt O60331); assay: Kinome profiler screen; type: biochemical; details: at 20,000 nM inhibitor; kinase activity remaining
T28 construct: purchased Millipore KinaseProfiler

[29] = target: T29, PKA (Homo sapiens, UniProt P17612); assay: Kinome profiler screen; type: biochemical; details: at 20,000 nM inhibitor; kinase activity remaining
T29 construct: purchased Millipore KinaseProfiler

[30] = target: T30, PKCα (Homo sapiens, UniProt P17252); assay: Kinome profiler screen; type: biochemical; details: at 20,000 nM inhibitor; kinase activity remaining
T30 construct: purchased Millipore KinaseProfiler

[31] = target: T31, PKCγ (Homo sapiens, UniProt P05129); assay: Kinome profiler screen; type: biochemical; details: at 20,000 nM inhibitor; kinase activity remaining
T31 construct: purchased Millipore KinaseProfiler

[32] = target: T32, PKCμ (Homo sapiens, UniProt Q15139); assay: Kinome profiler screen; type: biochemical; details: at 20,000 nM inhibitor; kinase activity remaining
T32 construct: purchased Millipore KinaseProfiler

[33] = target: T33, PKG1β (Homo sapiens, UniProt Q13976); assay: Kinome profiler screen; type: biochemical; details: at 20,000 nM inhibitor; kinase activity remaining
T33 construct: purchased Millipore KinaseProfiler

[34] = target: T34, PrKX (Homo sapiens, UniProt P51817); assay: Kinome profiler screen; type: biochemical; details: at 20,000 nM inhibitor; kinase activity remaining
T34 construct: purchased Millipore KinaseProfiler

[35] = target: T35, PTK5 (Homo sapiens, UniProt P42685); assay: Kinome profiler screen; type: biochemical; details: at 20,000 nM inhibitor; kinase activity remaining
T35 construct: purchased Millipore KinaseProfiler

[36] = target: T36, Ret (V804L) (Homo sapiens, UniProt P07949, V804L); assay: Kinome profiler screen; type: biochemical; details: at 20,000 nM inhibitor; kinase activity remaining
T36 construct: purchased Millipore KinaseProfiler

[37] = target: T37, Ret(V804M) (Homo sapiens, UniProt P07949, V804M); assay: Kinome profiler screen; type: biochemical; details: at 20,000 nM inhibitor; kinase activity remaining
T37 construct: purchased Millipore KinaseProfiler

[38] = target: T38, SGK3 (Homo sapiens, UniProt Q96BR1); assay: Kinome profiler screen; type: biochemical; details: at 20,000 nM inhibitor; kinase activity remaining
T38 construct: purchased Millipore KinaseProfiler

[39] = target: T39, Syk (Homo sapiens, UniProt P43405); assay: Kinome profiler screen; type: biochemical; details: at 20,000 nM inhibitor; kinase activity remaining
T39 construct: purchased Millipore KinaseProfiler

[40] = target: T40, TAO3 (Homo sapiens, UniProt Q9H2K8); assay: Kinome profiler screen; type: biochemical; details: at 20,000 nM inhibitor; kinase activity remaining
T40 construct: purchased Millipore KinaseProfiler

[41] = target: T41, WNK3 (Homo sapiens, UniProt Q9BYP7); assay: Kinome profiler screen; type: biochemical; details: at 20,000 nM inhibitor; kinase activity remaining
T41 construct: purchased Millipore KinaseProfiler

[42] = system: BV-2 microglial cells; assay: cells; type: cell-based, murine; details: BV-2 cells
[43] = system: CA3-CA1 long-term potentiation; assay: LTP in Aβ42-treated hippocampal brain slices; set-up: species or system mice; details: 10 µM compound, 200 nM Aβ42
[44] = system: reference memory; assay: 2-day radial arm water maze (RAWM), Aβ42-infused mice; type: in vivo, C57BL/6J mice; details: 5 mg/Kg i.p.
[45] = at 20,000 nM inhibitor, kinase activity remaining, read-out: % Activity

T13 sequence (P35916 25-1363): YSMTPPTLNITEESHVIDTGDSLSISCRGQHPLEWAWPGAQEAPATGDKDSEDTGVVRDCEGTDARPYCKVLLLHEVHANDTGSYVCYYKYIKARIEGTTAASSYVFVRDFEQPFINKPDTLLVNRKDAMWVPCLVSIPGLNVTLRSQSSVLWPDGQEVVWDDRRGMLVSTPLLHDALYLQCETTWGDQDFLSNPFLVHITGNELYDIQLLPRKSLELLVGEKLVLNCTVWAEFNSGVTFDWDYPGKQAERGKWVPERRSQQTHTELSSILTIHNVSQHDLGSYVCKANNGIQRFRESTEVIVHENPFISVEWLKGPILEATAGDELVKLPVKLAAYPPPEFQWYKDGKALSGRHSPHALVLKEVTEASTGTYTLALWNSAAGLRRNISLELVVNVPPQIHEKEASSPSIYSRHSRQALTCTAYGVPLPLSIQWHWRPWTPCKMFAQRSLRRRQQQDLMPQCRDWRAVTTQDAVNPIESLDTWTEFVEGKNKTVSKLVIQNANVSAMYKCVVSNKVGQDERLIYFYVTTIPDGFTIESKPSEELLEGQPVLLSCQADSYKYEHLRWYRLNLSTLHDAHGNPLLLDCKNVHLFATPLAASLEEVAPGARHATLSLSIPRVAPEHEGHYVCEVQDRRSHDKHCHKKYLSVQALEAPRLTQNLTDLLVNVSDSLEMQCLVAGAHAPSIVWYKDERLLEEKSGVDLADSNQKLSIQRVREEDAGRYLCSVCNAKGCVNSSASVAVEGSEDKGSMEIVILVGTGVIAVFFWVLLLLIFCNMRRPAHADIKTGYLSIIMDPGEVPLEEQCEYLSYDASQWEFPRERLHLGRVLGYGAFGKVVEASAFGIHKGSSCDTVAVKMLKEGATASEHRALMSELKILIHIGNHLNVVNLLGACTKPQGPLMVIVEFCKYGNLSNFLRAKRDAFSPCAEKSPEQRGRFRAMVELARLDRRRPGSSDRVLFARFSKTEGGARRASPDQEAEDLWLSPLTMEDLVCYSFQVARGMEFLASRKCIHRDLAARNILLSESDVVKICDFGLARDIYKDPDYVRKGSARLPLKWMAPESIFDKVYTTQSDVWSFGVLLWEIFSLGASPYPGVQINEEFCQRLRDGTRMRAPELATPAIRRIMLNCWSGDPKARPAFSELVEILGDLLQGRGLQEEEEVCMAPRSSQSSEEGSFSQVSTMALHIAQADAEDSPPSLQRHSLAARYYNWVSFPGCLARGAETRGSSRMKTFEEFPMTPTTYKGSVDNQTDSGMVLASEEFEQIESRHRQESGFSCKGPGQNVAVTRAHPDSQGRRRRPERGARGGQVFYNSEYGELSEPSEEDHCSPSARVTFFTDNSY
T33 sequence (Q13976 1-686 isoform Q13976-2): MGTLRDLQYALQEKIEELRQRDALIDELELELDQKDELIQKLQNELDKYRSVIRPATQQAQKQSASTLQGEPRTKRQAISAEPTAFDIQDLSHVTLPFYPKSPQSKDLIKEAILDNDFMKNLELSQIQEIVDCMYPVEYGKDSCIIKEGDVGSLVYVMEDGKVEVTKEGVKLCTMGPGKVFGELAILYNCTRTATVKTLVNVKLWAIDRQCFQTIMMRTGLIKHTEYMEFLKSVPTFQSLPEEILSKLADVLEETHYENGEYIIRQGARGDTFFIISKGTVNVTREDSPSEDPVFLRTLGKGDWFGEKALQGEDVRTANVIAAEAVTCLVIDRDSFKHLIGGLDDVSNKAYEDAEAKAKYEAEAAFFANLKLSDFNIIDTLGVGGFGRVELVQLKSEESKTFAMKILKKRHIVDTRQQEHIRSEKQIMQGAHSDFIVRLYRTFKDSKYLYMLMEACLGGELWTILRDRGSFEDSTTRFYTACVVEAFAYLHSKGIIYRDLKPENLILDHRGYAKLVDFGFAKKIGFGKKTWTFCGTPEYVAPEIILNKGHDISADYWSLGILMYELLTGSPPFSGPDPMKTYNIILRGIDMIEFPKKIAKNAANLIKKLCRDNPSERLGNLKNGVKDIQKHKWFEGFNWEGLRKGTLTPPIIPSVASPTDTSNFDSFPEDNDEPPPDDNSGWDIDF
T16 sequence (Q8WTQ7 whole entry): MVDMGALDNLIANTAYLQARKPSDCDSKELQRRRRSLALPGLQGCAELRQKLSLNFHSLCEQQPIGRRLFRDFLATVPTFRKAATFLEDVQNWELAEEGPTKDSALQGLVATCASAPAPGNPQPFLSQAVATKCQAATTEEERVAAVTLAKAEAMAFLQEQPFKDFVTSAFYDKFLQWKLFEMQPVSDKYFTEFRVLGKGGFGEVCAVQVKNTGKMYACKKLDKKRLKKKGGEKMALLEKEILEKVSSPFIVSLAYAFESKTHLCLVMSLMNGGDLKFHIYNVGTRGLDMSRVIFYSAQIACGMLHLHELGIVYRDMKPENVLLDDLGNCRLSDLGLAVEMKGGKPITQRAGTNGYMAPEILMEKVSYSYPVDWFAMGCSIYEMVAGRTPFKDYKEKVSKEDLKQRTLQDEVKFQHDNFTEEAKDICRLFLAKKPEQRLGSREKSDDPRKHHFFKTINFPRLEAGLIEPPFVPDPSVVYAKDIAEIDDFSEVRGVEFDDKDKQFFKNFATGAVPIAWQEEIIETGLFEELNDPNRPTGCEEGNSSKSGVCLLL
T15 sequence (P43250 whole entry): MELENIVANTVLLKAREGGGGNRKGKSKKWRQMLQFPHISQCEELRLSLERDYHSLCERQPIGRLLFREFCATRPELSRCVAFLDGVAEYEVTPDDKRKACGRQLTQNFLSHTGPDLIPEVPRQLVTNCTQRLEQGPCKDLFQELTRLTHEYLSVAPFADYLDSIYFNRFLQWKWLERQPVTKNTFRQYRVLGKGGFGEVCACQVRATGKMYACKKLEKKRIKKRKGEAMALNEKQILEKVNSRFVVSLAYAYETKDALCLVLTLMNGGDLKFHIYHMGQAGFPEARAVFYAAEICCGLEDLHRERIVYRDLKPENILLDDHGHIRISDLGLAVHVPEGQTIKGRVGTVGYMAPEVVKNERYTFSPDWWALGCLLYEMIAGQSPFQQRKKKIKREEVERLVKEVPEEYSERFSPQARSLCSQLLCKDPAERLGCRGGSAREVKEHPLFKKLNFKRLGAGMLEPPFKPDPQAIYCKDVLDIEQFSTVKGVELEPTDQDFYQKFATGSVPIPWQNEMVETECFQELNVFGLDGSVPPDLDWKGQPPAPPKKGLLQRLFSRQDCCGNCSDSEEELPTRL
T35 sequence (P42685 whole entry): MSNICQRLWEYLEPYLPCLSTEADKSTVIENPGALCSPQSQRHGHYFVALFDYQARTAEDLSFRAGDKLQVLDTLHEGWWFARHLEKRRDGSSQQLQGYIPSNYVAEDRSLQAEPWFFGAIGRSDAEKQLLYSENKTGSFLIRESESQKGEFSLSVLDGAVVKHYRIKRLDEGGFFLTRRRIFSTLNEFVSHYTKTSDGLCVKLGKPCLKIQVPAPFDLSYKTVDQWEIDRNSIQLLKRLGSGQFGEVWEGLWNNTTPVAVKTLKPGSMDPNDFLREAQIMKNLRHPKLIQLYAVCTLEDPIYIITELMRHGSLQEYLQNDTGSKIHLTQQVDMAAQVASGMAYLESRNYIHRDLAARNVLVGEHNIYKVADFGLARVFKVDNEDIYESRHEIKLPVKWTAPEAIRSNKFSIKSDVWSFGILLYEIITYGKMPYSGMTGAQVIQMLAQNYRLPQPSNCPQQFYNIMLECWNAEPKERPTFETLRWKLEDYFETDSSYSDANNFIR

CN(C)c1cc(-c2ccncc2)c(-c2ccc3ccccc3c2)nn1 [MW108, N, N-dimethyl-6-(naphthalen-2-yl)-5-(pyridin-4-yl)pyridazin-3-amine]
activity at 20 µM [1]: 101%
activity at 20 µM [2]: 85%
activity at 20 µM [3]: 88%
activity at 20 µM [4]: 95%
activity at 20 µM [5]: 100%
activity at 20 µM [6]: 103%
activity at 20 µM [7]: 93%
activity at 20 µM [8]: 108%
activity at 20 µM [9]: 97%
activity at 20 µM [10]: 95%
activity at 20 µM [11]: 111%
activity at 20 µM [12]: 76%
IC50 [13]: 4910 nM
activity at 20 µM [13]: 11%
activity at 20 µM [14]: 110%
activity at 20 µM [15]: 98%
activity at 20 µM [16]: 98%
activity at 20 µM [17]: 90%
activity at 20 µM [18]: 97%
activity at 20 µM [19]: 107%
activity at 20 µM [20]: 94%
activity at 20 µM [21]: 62%
activity at 20 µM [22]: 97%
activity at 20 µM [23]: 103%
activity at 20 µM [24]: 99%
activity at 20 µM [25]: 105%
activity at 20 µM [26]: 104%
activity at 20 µM [27]: 100%
activity at 20 µM [28]: 104%
activity at 20 µM [29]: 74%
activity at 20 µM [30]: 92%
activity at 20 µM [31]: 93%
activity at 20 µM [32]: 70%
activity at 20 µM [33]: 96%
activity at 20 µM [34]: 109%
activity at 20 µM [35]: 80%
activity at 20 µM [36]: 102%
activity at 20 µM [37]: 85%
activity at 20 µM [38]: 104%
activity at 20 µM [39]: 88%
activity at 20 µM [40]: 73%
activity at 20 µM [41]: 91%
LPS-induced IL-1β production [42]: inhibited LPS-induced IL-1β production in a concentration-dependent manner
IC50 ([42]; Mus musculus, 100 ng/ml LPS, 18 hrs, read-out: IC50, inhibition of IL-1β overproduction): 610 ± 20 nM
LTP deficit in Aβ42-treated slices [43]: ameliorated the LTP deficit
reference memory deficit, RAWM [44]: ameliorated the reference memory deficit

CN(C)c1cc(-c2ccncc2)c(-c2cccc3ccccc23)nn1 [MW181, N,N-dimethyl-6-(naphthalen-1-yl)-5-(pyridin-4-yl)pyridazin-3-amine]
activity at 20 µM [1]: 105%
activity at 20 µM [2]: 101%
activity at 20 µM [3]: 105%
activity at 20 µM [4]: 104%
activity at 20 µM [5]: 105%
activity at 20 µM [6]: 98%
activity at 20 µM [7]: 111%
activity at 20 µM [8]: 98%
activity at 20 µM [9]: 76%
activity at 20 µM [10]: 102%
activity at 20 µM [11]: 100%
activity at 20 µM [12]: 96%
activity at 20 µM [13]: 98%
activity at 20 µM [14, 45]: 100%
activity at 20 µM [15, 45]: 105%
activity at 20 µM [16, 45]: 102%
activity at 20 µM [17]: 95%
activity at 20 µM [18]: 106%
activity at 20 µM [19]: 102%
activity at 20 µM [20]: 108%
activity at 20 µM [21]: 89%
activity at 20 µM [22]: 90%
activity at 20 µM [23]: 103%
activity at 20 µM [24]: 115%
activity at 20 µM [25]: 94%
activity at 20 µM [26]: 102%
activity at 20 µM [27]: 101%
activity at 20 µM [28]: 100%
activity at 20 µM [29]: 142%
activity at 20 µM [30]: 86%
activity at 20 µM [31]: 96%
activity at 20 µM [32]: 70%
activity at 20 µM [33]: 97%
activity at 20 µM [34]: 108%
activity at 20 µM [35]: 90%
activity at 20 µM [36]: 102%
activity at 20 µM [37]: 102%
activity at 20 µM [38]: 100%
activity at 20 µM [39]: 105%
activity at 20 µM [40]: 88%
activity at 20 µM [41]: 89%
LPS-induced IL-1β production [42]: inhibited LPS-induced IL-1β production in a concentration-dependent manner
LTP deficit in Aβ42-treated slices [43]: ameliorated the LTP deficit
reference memory deficit, RAWM [44]: ameliorated the reference memory deficit
